{"source": "patent EP0937727A1", "about": "“Soluble crystalline cefuroxime axetil” (priority 1998, dated 1999)", "key": {"[1]": {"assay": "Dissolution (solubility) test of the active ingredient from standardised tablets according to USP 23, p. 316", "assay_type": "physicochemical", "settings": "test gemäß USP 23, nach 45 Minuten", "excerpt": "Im Anschluß beschreibt USP 23, Seite 316 einen Test für die Bestimmung der Bioverfügbarkeit dieses, aus beiden Diastereomeren etwa im Verhältnis von 1:1 bestehenden amorphen Produktes. Hierzu wird die Löslichkeit des Wirkstoffes aus einer standardisierten Tablettenformulierung in […] bestimmt. Zuläßlich sind solche Produkte, bei denen in 15 Minuten mindestens 60% des angegebenen Gehaltes an Wirkstoff und innerhalb von 45 Minuten mindestens 75% des angegebenen Wirkstoffes aufgelöst sind.\nDas Produkt gemäß EP-A1 0 757 991 läßt sich nach der dortigen Vorschrift erzeugen. Die Löslichkeit des Wirkstoffes (aus der tablettierten Form) wie im folgenden beschrieben und bestimmt nach dem Standardverfahren gem. USP 23, S. 316, erreicht jedoch nach 45 Minuten nur etwas mehr als 40 %.\nDann wurden mit dem so gewonnenen Wirkstoff einerseits, dem erfindungsgemäßen Wirkstoff andererseits Tabletten hergestellt, und zwar nach folgendem Verfahren: 305 mg kristallines Cefuroxim axetil wurden mit 50 mg Ac disol, 50 mg Avicel pH 105, 7,5 mg Aerosil 200, 2,5 mg Magnesiumstearat und 7,5 Explotab trocken vermischt. Das Gemisch wurde trocken verpreßt und granuliert. Das so erhaltene Granulat wurde mit 7,5 mg Explotab und 7,5 mg Natriumlaurylsulfat vermischt und das erhaltene Gemisch wurde dann zu Tabletten gepreßt.\nMit den so erhaltenen Tabletten wurde jeweils der Löslichkeitstest gemäß USP 23 durchgeführt. […]"}, "[2]": {"settings": "known crystalline form of the prior art; compared with the prescribed minimum (60% in 15 Minuten, 75% in 45 Minuten); cited from earlier work"}}, "note": "Values joined by “and” are separate entries in the source; they are usually repeats but may differ in a detail not shown here. Identical values can stand only once.", "data": [{"molecule": "CO/N=C(\\C(=O)N[C@@H]1C(=O)N2C(C(=O)OC(C)OC(C)=O)=C(COC(N)=O)CS[C@H]12)c1ccco1", "note": "(single isomer, unassigned) [Beispiel 2]", "values": [{"measurement": "Löslichkeit (Grad der Auflösung des Wirkstoffes)", "setting": "[1]; listed as kristalline Form von (R,S)-Cefuroxim axetil gemäß USP 23", "result": "> 50% and ~75%"}]}, {"molecule": "CO/N=C(\\C(=O)N[C@@H]1C(=O)N2C(C(=O)OC(C)OC(C)=O)=C(COC(N)=O)CS[C@H]12)c1ccco1", "note": "(stereo partly drawn) [Produkt gemäß EP-A1 0 757 991, (R,S)-Cefuroxim axetil]", "values": [{"measurement": "Löslichkeit (Grad der Auflösung des Wirkstoffes)", "setting": "[1]", "result": "> 40", "unit": "%"}]}, {"molecule": "CO/N=C(\\C(=O)N[C@@H]1C(=O)N2C(C(=O)OC(C)OC(C)=O)=C(COC(N)=O)CS[C@H]12)c1ccco1", "note": "(stereo partly drawn) [kristalline (R,S)-Cefuroxim axetil, (R,S)-Cefuroxim axetil]", "values": [{"measurement": "Löslichkeit im Test gemäß USP 23", "setting": "[2]", "result": "bei weitem nicht die vorgeschriebene Mindestlöslichkeit"}]}]}
